Common to all, as to type: ADME
The nature of data set [1]: Permeability of compound assessed as compound recovery incubated for 14 to 18 hrs by PAMPA. As to conditions: time 14-18 hrs, read-out: Drug recovery.
Data set [2] is described as follows: Permeability of compound assessed as compound diffusion incubated for 14 to 18 hrs by PAMPA. Conditions: time 14-18 hrs.
The nature of data set [3]: Apparent permeability of compound incubated for 14 to 18 hrs by PAMPA. Conditions: time 14-18 hrs.

Starred links: 1 amine or outer side, 2 acyl side, 3 side chain; linkers in the order of their positions; H or OH if unused. Non-standard residues stand in square brackets, D forms with d. Residues, ends and D or L forms follow the SMILES beside them. X1 = CCCCC[C@H](O[*:1])C(=O)[*:2]; Ahp(2) = CCCCC[C@H](N)C(=O)O; dNMeA = CN[C@H](C)C(=O)O Bounds are passed on as bounds.

Regarding `CCCCC[C@H](NC(=O)[C@@H](C)N(C)C(=O)[C@H](CCCCC)NC(=O)[C@@H](C)N(C)C(=O)[C@H](CCCCC)NC(=O)[C@@H](C)N(C)C(=O)[C@H](CCCCC)OC(=O)[C@@H](C)N(C)C(=O)OC(C)(C)C)C(=O)OCc1ccccc1`, the recovery in data set [1] turned out to be 89%. In addition, the Activity in data set [2] is 12%.
As to `CCCCC[C@H](NC(=O)[C@@H](C)N(C)C(=O)[C@H](CCCCC)OC(=O)[C@@H](C)N(C)C(=O)[C@H](CCCCC)OC(=O)[C@@H](C)N(C)C(=O)[C@H](CCCCC)OC(=O)[C@@H](C)N(C)C(=O)OC(C)(C)C)C(=O)OCc1ccccc1`, the recovery in data set [1] is 93%.
Regarding `CCCCC[C@H](OC(=O)[C@@H](C)N(C)C(=O)[C@H](CCCCC)OC(=O)[C@@H](C)N(C)C(=O)[C@H](CCCCC)OC(=O)[C@@H](C)N(C)C(=O)[C@H](CCCCC)OC(=O)[C@@H](C)N(C)C(=O)[C@H](CCCCC)OC(=O)[C@@H](C)N(C)C(=O)[C@H](CCCCC)OC(=O)[C@@H](C)N(C)C(=O)OC(C)(C)C)C(=O)OCc1ccccc1`, in data set [3], the Papp entry is listed as “Below_limit_of_detection” and the logPapp result is recorded as “Below_limit_of_detection”. The Activity in data set [2] is less than 5%.
As to `CCCCC[C@H](NC(=O)[C@@H](C)N(C)C(=O)[C@H](CCCCC)NC(=O)[C@@H](C)N(C)C(=O)[C@H](CCCCC)OC(=O)[C@@H](C)N(C)C(=O)[C@H](CCCCC)OC(=O)[C@@H](C)N(C)C(=O)OC(C)(C)C)C(=O)OCc1ccccc1`, the recovery in data set [1] turned out to be 92%.
Turning to `CCCCC[C@@H]1NC(=O)[C@@H](C)N(C)C(=O)[C@H](CCCCC)OC(=O)[C@@H](C)N(C)C(=O)[C@H](CCCCC)NC(=O)[C@@H](C)N(C)C(=O)[C@H](CCCCC)OC(=O)[C@@H](C)N(C)C1=O` (cyclo([Ahp(2)][dNMeA][X1][dNMeA][Ahp(2)][dNMeA][X1][dNMeA])), the Activity in data set [2] is on record as 25%.

The record behind these values is ChEMBL document CHEMBL6134876, “End-to-End Backbone Cyclization Enhances Passive Permeability of bRo5 Oligomeric Depsipeptides with Nonlinear Size Dependence” (ACS Med Chem Lett, 2025).
